Reference: the supplement of paper PMC10307832

compound: Cc1nc(NC(=O)N2CCC[C@H]2C(N)=O)sc1-c1ccnc(C(C)(C)C(F)(F)F)c1 [Alpelisib] + COc1cc2c(Oc3ccc(NC(=O)C4(C(=O)Nc5ccc(F)cc5)CC4)cc3F)ccnc2cc1OCCCN1CCOCC1 [Foretinib] (partner 0.25 µM); assay: relative viability (nuclei count vs DMSO), 5 days (fraction); higher = more cells survive; conditions: first compound 0.1265 µM
Method in brief: (§1)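 After 5 days of treatment, lung cancer cells in 1536-well plates were fixed and stained in a single step (final 0.05% Triton X-100, 1% formaldehyde, 1 ug/ml Hoechst) and their nuclei counted on 4× images. Treatment had been applied by pin tool the day after seeding as one drug alone or as a fixed anchor-drug dose with five library-drug doses (not always all listed) in √10 steps. Relative viability is the nuclei count of treated wells divided by that of vehicle wells, and values are medians of duplicate plates.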

Cell Line | relative viability
HCC-15 | 1
NCI-H1944 | 0.96
EMC-BAC-2 | 0.867
NCI-H1395 | 1.04
LC-2-ad | 0.908
NCI-H2085 | 0.845
NCI-H727 | 0.772
NCI-H647 | 1.14
HARA | 0.888
NCI-H3122 | 0.884
NCI-H358 | 0.674
CAL-12T | 1.24
COR-L 105 | 1.26
LCLC-97TM1 | 0.913
NCI-H520 | 0.928
EBC-1 | 0.0979
NCI-H2228 | 0.927
NCI-H23 | 0.935
HCC-827 | 1.05
NCI-H2347 | 0.98
A549 | 0.875
IA-LM | 1.31
LXF-289 | 1
NCI-H1666 | 1.02
RERF-LC-KJ | 0.773
NCI-H650 | 0.988
NCI-H322M | 0.867
NCI-H596 | 0.677
201T | 1.06

same assay, conditions: first compound 0.4 µM

Cell Line | relative viability
NCI-H1734 | 0.786
LCLC-103H | 0.652
Calu-6 | 0.931
LU99A | 0.722
NCI-H460 | 1.08
SK-LU-1 | 0.854
COR-L23 | 1.12
HCC-15 | 0.961
NCI-H1944 | 0.881
EMC-BAC-2 | 1.01
NCI-H1395 | 1.01
LC-2-ad | 0.966
NCI-H2085 | 1.05
NCI-H727 | 0.771
NCI-H647 | 1.33
HARA | 0.879
NCI-H3122 | 0.987
NCI-H358 | 0.684

Cell Line | relative viability
CAL-12T | 1.14
COR-L 105 | 1.02
LCLC-97TM1 | 0.883
NCI-H520 | 0.838
EBC-1 | 0.0957
NCI-H2228 | 0.701
NCI-H23 | 0.977
HCC-827 | 0.968
NCI-H2347 | 0.88
A549 | 0.956
IA-LM | 1.11
LXF-289 | 1.08
NCI-H1666 | 1.05
RERF-LC-KJ | 0.893
NCI-H650 | 1.01
NCI-H322M | 0.927
NCI-H596 | 0.731
201T | 1.29

same assay, conditions: first compound 1.265 µM

Cell Line | relative viability
NCI-H1734 | 0.486
LCLC-103H | 0.567
Calu-6 | 0.871
LU99A | 0.661
NCI-H460 | 0.929
SK-LU-1 | 0.453
COR-L23 | 0.843
HCC-15 | 0.792
NCI-H1944 | 0.581
EMC-BAC-2 | 0.689
NCI-H1395 | 0.897
LC-2-ad | 0.601
NCI-H2085 | 1.07
NCI-H727 | 0.645
NCI-H647 | 0.837
HARA | 0.682
NCI-H3122 | 0.867
NCI-H358 | 0.567

Cell Line | relative viability
CAL-12T | 1.06
COR-L 105 | 1
LCLC-97TM1 | 0.73
NCI-H520 | 0.605
EBC-1 | 0.108
NCI-H2228 | 0.613
NCI-H23 | 0.743
HCC-827 | 0.964
NCI-H2347 | 0.647
A549 | 0.662
IA-LM | 1.12
LXF-289 | 0.909
NCI-H1666 | 0.801
RERF-LC-KJ | 0.716
NCI-H650 | 0.839
NCI-H322M | 0.619
NCI-H596 | 0.457
201T | 0.841

same assay, conditions: first compound 4 µM

Cell Line | relative viability
NCI-H1734 | 0.356
LCLC-103H | 0.471
Calu-6 | 0.617
LU99A | 0.503
NCI-H460 | 0.795
SK-LU-1 | 0.681
COR-L23 | 0.839
HCC-15 | 0.735
NCI-H1944 | 0.43
EMC-BAC-2 | 0.592
NCI-H1395 | 0.988
LC-2-ad | 0.576
NCI-H2085 | 0.833
NCI-H727 | 0.676
NCI-H647 | 1.24
HARA | 0.533
NCI-H3122 | 0.821
NCI-H358 | 0.353

Cell Line | relative viability
CAL-12T | 1.07
COR-L 105 | 1.08
LCLC-97TM1 | 0.449
NCI-H520 | 0.582
EBC-1 | 0.114
NCI-H2228 | 0.404
NCI-H23 | 0.621
HCC-827 | 0.746
NCI-H2347 | 0.701
A549 | 0.599
IA-LM | 1.13
LXF-289 | 0.764
NCI-H1666 | 0.74
RERF-LC-KJ | 0.696
NCI-H650 | 0.822
NCI-H322M | 0.678
NCI-H596 | 0.431
201T | 0.71

compound: Cc1nc(NC(=O)N2CCC[C@H]2C(N)=O)sc1-c1ccnc(C(C)(C)C(F)(F)F)c1 [Alpelisib] + C[C@]1(O)C[C@@H](c2nc(-c3ccc4ccc(-c5ccccc5)nc4c3)c3c(N)nccn32)C1 [Linsitinib] (partner 1 µM); assay: as above; conditions: first compound 0.04 µM
Method in brief: as §1

Cell Line | relative viability
NCI-H1734 | 0.814
LCLC-103H | 1.07
Calu-6 | 0.906
LU99A | 0.501
NCI-H460 | 0.716
SK-LU-1 | 1.22
COR-L23 | 0.836
HCC-15 | 0.892
NCI-H1944 | 0.985
EMC-BAC-2 | 0.773
NCI-H1395 | 1.12
LC-2-ad | 0.766
NCI-H2085 | 0.874
NCI-H727 | 0.292
NCI-H647 | 1.01
HARA | 0.885
NCI-H3122 | 0.994
NCI-H358 | 0.683
CAL-12T | 0.801
COR-L 105 | 1.04
LCLC-97TM1 | 0.167
